In ChEMBL document CHEMBL1671627, “Increasing trends in antimicrobial resistance among clinically important anaerobes and Bacteroides fragilis isolates causing nosocomial infections: emerging resistance to carbapenems” (2008):
≈ marks a conversion by molar mass, not a printed value.

Legend:
[1] = test system: Bacteroides fragilis; test: Antibacterial activity against Bacteroides fragilis assessed as susceptible isolates by CLSI agar dilution method; format: functional
[2] = test system: Bacteroides fragilis; test: Antibacterial activity against Bacteroides fragilis assessed as resistant isolates by CLSI agar dilution method; format: functional
[3] = test system: Bacteroides thetaiotaomicron; test: Antibacterial activity against beta-lactamase producing Bacteroides thetaiotaomicron assessed as susceptible isolates by CLSI agar dilution method; format: functional
[4] = test system: Bacteroides thetaiotaomicron; test: Antibacterial activity against beta-lactamase producing Bacteroides thetaiotaomicron assessed as resistant isolates by CLSI agar dilution method; format: functional
[5] = test system: Phocaeicola vulgatus; test: Antibacterial activity against beta-lactamase producing Bacteroides vulgatus by CLSI agar dilution method; format: functional
[6] = test system: Phocaeicola vulgatus; test: Antibacterial activity against beta-lactamase producing Bacteroides vulgatus assessed as susceptible isolates by CLSI agar dilution method; format: functional
[7] = test system: Phocaeicola vulgatus; test: Antibacterial activity against beta-lactamase producing Bacteroides vulgatus assessed as resistant isolates by CLSI agar dilution method; format: functional
[8] = test system: Bacteroides uniformis; test: Antibacterial activity against beta-lactamase producing Bacteroides uniformis by CLSI agar dilution method; format: functional
[9] = test system: Bacteroides uniformis; test: Antibacterial activity against beta-lactamase producing Bacteroides uniformis assessed as susceptible isolates by CLSI agar dilution method; format: functional
[10] = test system: Bacteroides uniformis; test: Antibacterial activity against beta-lactamase producing Bacteroides uniformis assessed as resistant isolates by CLSI agar dilution method; format: functional
[11] = test system: Bacteroides caccae; test: Antibacterial activity against beta-lactamase producing Bacteroides caccae by CLSI agar dilution method; format: functional
[12] = test system: Bacteroides caccae; test: Antibacterial activity against beta-lactamase producing Bacteroides caccae assessed as susceptible isolates by CLSI agar dilution method; format: functional
[13] = test system: Bacteroides caccae; test: Antibacterial activity against beta-lactamase producing Bacteroides caccae assessed as resistant isolates by CLSI agar dilution method; format: functional
[14] = test system: Fusobacterium varium; test: Antibacterial activity against Fusobacterium varium by CLSI agar dilution method; format: functional
[15] = test system: Fusobacterium nucleatum; test: Antibacterial activity against Fusobacterium nucleatum by CLSI agar dilution method; format: functional
[16] = test system: Fusobacterium mortiferum; test: Antibacterial activity against Fusobacterium mortiferum by CLSI agar dilution method; format: functional
[17] = test system: Fusobacterium necrophorum; test: Antibacterial activity against Fusobacterium necrophorum by CLSI agar dilution method; format: functional
[18] = test system: Fusobacterium varium; test: Antibacterial activity against Fusobacterium varium assessed as susceptible isolates by CLSI agar dilution method; format: functional
[19] = test system: Fusobacterium nucleatum; test: Antibacterial activity against Fusobacterium nucleatum assessed as susceptible isolates by CLSI agar dilution method; format: functional
[20] = test system: Fusobacterium mortiferum; test: Antibacterial activity against Fusobacterium mortiferum assessed as susceptible isolates by CLSI agar dilution method; format: functional
[21] = test system: Fusobacterium necrophorum; test: Antibacterial activity against Fusobacterium necrophorum assessed as susceptible isolates by CLSI agar dilution method; format: functional
[22] = test system: Fusobacterium varium; test: Antibacterial activity against Fusobacterium varium assessed as resistant isolates by CLSI agar dilution method; format: functional
[23] = test system: Fusobacterium nucleatum; test: Antibacterial activity against Fusobacterium nucleatum assessed as resistant isolates by CLSI agar dilution method; format: functional
[24] = test system: Fusobacterium mortiferum; test: Antibacterial activity against Fusobacterium mortiferum assessed as resistant isolates by CLSI agar dilution method; format: functional
[25] = test system: Fusobacterium necrophorum; test: Antibacterial activity against Fusobacterium necrophorum assessed as resistant isolates by CLSI agar dilution method; format: functional
[26] = test system: Prevotella buccae; test: Antibacterial activity against Prevotella buccae by CLSI agar dilution method; format: functional; conditions: Segatella buccae
[27] = test system: Prevotella bivia; test: Antibacterial activity against Prevotella bivia by CLSI agar dilution method; format: functional
[28] = test system: Prevotella intermedia; test: Antibacterial activity against Prevotella intermedia by CLSI agar dilution method; format: functional
[29] = test system: Prevotella melaninogenica; test: Antibacterial activity against Prevotella melaninogenica by CLSI agar dilution method; format: functional
[30] = test system: Prevotella buccae; test: Antibacterial activity against Prevotella buccae assessed as susceptible isolates by CLSI agar dilution method; format: functional, Segatella buccae
[31] = test system: Prevotella bivia; test: Antibacterial activity against Prevotella bivia assessed as susceptible isolates by CLSI agar dilution method; format: functional
[32] = test system: Prevotella intermedia; test: Antibacterial activity against Prevotella intermedia assessed as susceptible isolates by CLSI agar dilution method; format: functional
[33] = test system: Prevotella melaninogenica; test: Antibacterial activity against Prevotella melaninogenica assessed as susceptible isolates by CLSI agar dilution method; format: functional

`O=C(N[C@H](CO)[C@H](O)c1ccc([N+](=O)[O-])cc1)C(Cl)Cl` [CHLORAMPHENICOL] showed an Activity [1] of 97%, an Activity [2] of 3% and an Activity [3] of 97%. For the same compound, the Activity [4] was 0%, the MIC50 [5] was 4 µg/mL (≈ 12.4 µM) and the MIC90 [5] was 8 µg/mL (≈ 24.8 µM). It also gave an Activity [6] of 96%, an Activity [7] of 4% and an MIC50 [8] of 4 µg/mL (≈ 12.4 µM). It also gave an MIC90 [8] of 8 µg/mL (≈ 24.8 µM), an Activity [9] of 96% and an Activity [10] of 4%. For the same compound, the MIC50 [11] was 4 µg/mL (≈ 12.4 µM), the MIC90 [11] was 8 µg/mL (≈ 24.8 µM) and the Activity [12] was 96%. The Activity [13] was 4%, the MIC50 [14] was 2 µg/mL (≈ 6.19 µM) and the MIC90 [14] was 2 µg/mL (≈ 6.19 µM). For the same compound, the MIC50 [15] was 2 µg/mL (≈ 6.19 µM), the MIC90 [15] was 2 µg/mL (≈ 6.19 µM) and the MIC50 [16] was 2 µg/mL (≈ 6.19 µM). The MIC90 [16] was 2 µg/mL (≈ 6.19 µM), the MIC50 [17] was 2 µg/mL (≈ 6.19 µM) and the MIC90 [17] was 2 µg/mL (≈ 6.19 µM). It also gave an Activity [18] of 96%, an Activity [19] of 96% and an Activity [20] of 96%. The Activity [21] was 96%, the Activity [22] was 4% and the Activity [23] was 4%. It also gave an Activity [24] of 4%, an Activity [25] of 4% and an MIC50 [26] of 4 µg/mL (≈ 12.4 µM). The MIC90 [26] was 8 µg/mL (≈ 24.8 µM), the MIC50 [27] was 4 µg/mL (≈ 12.4 µM) and the MIC90 [27] was 8 µg/mL (≈ 24.8 µM). For the same compound, the MIC50 [28] was 4 µg/mL (≈ 12.4 µM), the MIC90 [28] was 8 µg/mL (≈ 24.8 µM) and the MIC50 [29] was 4 µg/mL (≈ 12.4 µM). For the same compound, the MIC90 [29] was 8 µg/mL (≈ 24.8 µM), the Activity [30] was 100% and the Activity [31] was 100%. It also gave an Activity [32] of 100% and an Activity [33] of 100%.
